Like-named read-outs stand apart in the source and are kept apart here.
Tests used:
[1] = tested on: locally advanced or metastatic PDA; test: Phase 1 monotherapy dose escalation study, efficacy (RECIST, overall survival); type: in vivo, human
Experimental: Efficacy was assessed by RECIST criteria and overall survival.

[2] = Phase 1a/1b study in combination with G and A, pharmacokinetics; type: in vivo, human; settings: for Cmax / Tmax: human, plasma, subcutaneous
Experimental: G (1000 mg/m^2) and A (125 mg/m^2) were administered intravenously on Days 1, 8, and 15 of each cycle. […] PK was evaluated on day 1 of cycle 1. Efficacy was assessed by CA19-9 levels, objective response was assessed by RECIST criteria, progression-free survival (PFS) and overall survival (OS).
This is a multicenter, open label, Phase 1a/1b study to evaluate to evaluate the safety, tolerability, pharmacokinetics and efficacy of (S,S)-(HO)2DEHSPM when administered in combination with G and A as first-line therapy in pancreatic cancer patients previously untreated for metastatic disease. The objective was to determine a recommended Phase 2 dose. Using a modified 3+3 dose escalation scheme, cohorts of subjects were dosed with subcutaneous injections of (S,S)-(HO)2DEHSPM at 0.2, 0.4 or 0.6 mg/kg days 1-5 of each 28-day cycle. Gemcitabine (1000 mg/m^2) and A (125 mg/m^2) were administered intravenously on Days 1, 8, and 15 of each cycle. […] PK was evaluated on day 1 of cycle 1. Efficacy was assessed by objective response rate (ORR) using RECIST criteria and by changes in CA19-9 levels. Subjects were treated until disease progression or the development of dose-limiting toxicity. Based upon initial safety findings and preliminary signals of efficacy, the protocol was amended to evaluate progression-free survival (PFS) and overall survival (OS) and expand the study to up to 36 subjects at the recommended Phase 2 dose. To date, 20 subjects were enrolled in cohorts 1-3 and evaluated for dose limiting toxicity and early signals of efficacy.

[3] = Repeat doses in healthy beagles; type: in vivo
Experimental: This effect on the exocrine pancreas in dogs (causing nearly complete ablation of the exocrine pancreas) was an unexpected finding in development of this polyamine analogue as a therapeutic agent. It occurred in a dose-dependent manner several weeks after drug dosing was discontinued in dogs. Beginning 5 to 6 weeks post last dose, the animals at the high-dose levels rapidly lost weight and their serum trypsin-like immunoreactivity decreased to <2.5 μg/L, which is diagnostic for exocrine pancreatic insufficiency in this species. In addition, fat absorption tests became abnormal and hepatic transaminase values increased. The pancreata of euthanized animals were grossly atrophied with diffuse moderate to severe pancreatic atrophy, especially of the acini. However, the islets appeared both histologically intact and functional based on serum glucose levels and oral glucose tolerance tests.

[4] = tested on: human L3.6pl pancreatic cancer cells; test: Orthotopic implantation of L3.6pl pancreatic cancer cells into nude mice; settings: for Median survival: control group 21 days
Experimental: These studies examined the anti-neoplastic effects of subcutaneous administration of (S,S)-(HO)2DEHSPM following orthotopic implantation of human L3.6pl pancreatic cancer cells into the pancreas of nude mice.
L3.6pl cells were injected into the pancreas of nude mice; treatment was initiated by group (n=10/group planned) 7-10 days later following establishment of tumors:
Study 1: saline (control), (S,S)-(HO)2DEHSPM (25 mg/kg), (S,S)-(HO)2DEHSPM (50 mg/kg), and (S,S)-(HO)2DEHSPM (100 mg/kg) daily (QD) for 4 to 6 weeks (wks).
Study 2: saline (control), (S,S)-(HO)2DEHSPM (25 mg/kg QD), (S,S)-(HO)2DEHSPM (25 mg/kg 3×/wk), (S,S)-(HO)2DEHSPM (15 mg/kg 3×/wk), and (S,S)-(HO)2DEHSPM (5 mg/kg 3×/wk) for 4 to 6 wks.
Study 3: saline (control), gemcitabine (GEM) (100 mg/kg 2×/wk, intraperitoneally), (S,S)-(HO)2DEHSPM (25 mg/kg 3×/wk), and (S,S)-(HO)2DEHSPM+GEM for 4 to 6 wks.

[5] = 4-week repeated dose toxicity study in rats; type: in vivo
Experimental: For the first-in-human (Phase 1a/1b) study, a starting dose of 0.05 mg/kg (1.8 mg/m^2) of (S,S)-(HO)2DEHSPM.4HCl was chosen as 1/10 the severely toxic dose (STD10) observed in a 4-week repeated dose toxicity study in rats (3 mg/kg/day; […]). This dose was chosen in accordance with the ICH S9 Guideline for the Nonclinical Development for Anti-Cancer Pharmaceuticals. For the Phase 1a/1b dosing schedule patients were administered up to 0.4 mg/kg/day Monday through Friday for 3 weeks for a total cumulative dose (TCD) of 6 mg/kg. In this animal experiment, one cycle consisted of 3 weeks of dosing and 5 weeks of rest for a total cycle length of 8 weeks.

[6] = Study 3, compared with controls, GEM 100 mg/kg 2×/wk ip, (S,S)-(HO)2DEHSPM 25 mg/kg 3×/wk

CCNCCC(O)CNCCCCNCC(O)CCNCC [(S,S)-(HO)2DEHSPM, (6S,15S)-3,8,13,18-teraazaicosane-6,15-diol]
Stable disease ([1]; cohort 3 (0.2 mg/kg), N=4): 2 patients | Median survival ([1]; cohort 3 (0.2 mg/kg), N=4, heavily pre-treated PDA patients): 5.9 months | Stable disease ([1]; cohort 4 (0.4 mg/kg), N=7): 2 patients | Stable disease ([1]; cohort 5 (0.8 mg/kg), N=10): 4 patients | PK parameters ([2]; cohort 1 (0.2 mg/kg), day 1 of cycle 1): below the limits of detection at most time points | Cmax ([2]; sc, Cohort 1 (0.2 mg/kg) N=4, day 1 of cycle 1, read-out: Cmax Mean): 26.6 ng/mL | Cmax ([2]; sc, Cohort 2 (0.4 mg/kg) N=7, day 1 of cycle 1, read-out: Cmax Mean): 115 ng/mL | Cmax ([2]; sc, Cohort 3 (0.6 mg/kg) N=5, day 1 of cycle 1, read-out: Cmax Mean): 147 ng/mL | Tmax ([2]; Cohort 1 (0.2 mg/kg) N=4): 30 min | Cmax ([2]; Cohort 1 (0.2 mg/kg) N=4, read-out: Cmax Range): 13.2 to 41.6 ng/mL | Tmax ([2]; Cohort 2 (0.4 mg/kg) N=7): 30 min | Cmax ([2]; Cohort 2 (0.4 mg/kg) N=7, read-out: Cmax Range): 77.1 to 167 ng/mL | Tmax ([2]; Cohort 3 (0.6 mg/kg) N=5): 30 min | Cmax ([2]; Cohort 3 (0.6 mg/kg) N=5, read-out: Cmax Range): 91.9 to 195 ng/mL | effect on exocrine pancreas ([3]; cumulative exposure to repeat doses): exocrine pancreatic atrophy with exocrine pancreatic insufficiency without an inflammatory response and with preservation of islet cell function | serum trypsin-like immunoreactivity ([3]; high-dose levels, beginning 5 to 6 weeks post last dose): < 2.5 µg/L | reduction in pancreas weight ([4]; Study 1, 25 mg/kg QD subcutaneous, 4 to 6 wks, tumor bearing mice): 82.9% | toxicity / deaths ([4]; Study 1, 50 and 100 mg/kg QD): earlier deaths and proved to be toxic | decreases in pancreas weight and tumor volume ([4]; Study 2, 5 mg/kg 3×/wk): no decreases were noted | decrease in pancreas weight ([4]; Study 2, 15 mg/kg 3×/wk): 20.1% | decrease in tumor volume ([4]; Study 2, 15 mg/kg 3×/wk): 52.6% | reduction in pancreas weight ([4]; Study 2, 25 mg/kg 3×/wk): 47.8% | reduction in tumor volume ([4]; Study 2, 25 mg/kg 3×/wk): 66.6% | Median survival ([4]; Study 2, 25 mg/kg 3×/wk): 42 days | reduction in pancreas weight ([4]; Study 2, 25 mg/kg QD): 72.7% | reduction in tumor volume ([4]; Study 2, 25 mg/kg QD): 81.4% | Median survival ([4]; Study 2, 25 mg/kg QD): 32 days | decreases in body weight ([4]; Study 3, GEM 100 mg/kg 2×/wk ip, (S,S)-(HO)2DEHSPM 25 mg/kg 3×/wk, 4 to 6 wks): 35.6% | decreases in pancreas weight [4, 6]: 58.8% | decreases in tumor volume [4, 6]: 58.4% | severely toxic dose (STD10) [5]: 3 mg/kg/day
